Each structure is given as a SMILES string. Like-named read-outs stand apart in the source and are kept apart here.

Assay type in all cases: biochemical
Experiment [1] addresses T1, NAC fibrils (Homo sapiens, UniProt P37840).
T1 construct: NAC is a 35-amino acid fragment of α-synuclein; purchased Bachem Inc
Description: Thioflavin T fluorometry - disruption of Parkinson's disease NAC fibrils. The conditions noted are these: 3 days; for inhibition / % Inhibition NAC (result ± S.D.): 25 μM pre-fibrillized NAC, 37° C.; for inhibition: read-out: % Inhibition NAC (result ± S.D.); for disruption/disassembly of pre-formed NAC fibrils (in words): all concentrations tested (ratios 1:1 to 1:0.001). Put shortly: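 Pre-fibrillized NAC (25 μM) co-incubated 3 days at 37° C with compound at NAC:compound weight ratios 1:1 to 1:0.001. Fibril content read by Thioflavin T fluorescence (phosphate buffer pH 6.8; ex 444/em 485 nm), blank-subtracted for buffer or compound alone.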

Experiment [2] has as its target T2, Aβ 1-42 fibrils (Homo sapiens, UniProt P05067).
T2 construct: purchased Bachem Inc
Kind of experiment: Thioflavin T fluorometry - disruption of pre-formed Aβ 1-42 Alzheimer's fibrils. The conditions noted are these: 3 days; for inhibition / % Inhibition Aβ (result ± S.D.): 25 μM pre-fibrillized Aβ 1-42, 37° C.; for inhibition: read-out: % Inhibition Aβ (result ± S.D.). A digest of the protocol:
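Pre-fibrillized Aβ1-42 (25 µM) incubated 3 days at 37 °C alone or with compound at Aβ:compound weight ratios 1:1 to 1:0.001. Remaining fibrils quantified by Thioflavin T fluorescence (ex 444/em 485 nm) in phosphate buffer pH 6.8, blank-subtracted for buffer or compound alone.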

Experiment [3] addresses T3, IAPP fibrils (Homo sapiens, UniProt P10997).
T3 construct: purchased Bachem Inc
T3 sequence (P10997 34-70 limits assumed): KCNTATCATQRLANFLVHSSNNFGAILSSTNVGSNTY
Kind of experiment: Congo red binding assay with IAPP fibrils. The note with it: for % Inhibition IAPP (result ± S.D.), Congo red binding: 3-day incubation. Put shortly:
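Congo red staining of washed 0.2 μm filters measured the aggregated IAPP retained after a 3-day co-incubation with compound or EDTA. Weight ratios IAPP:compound were 1:1, 1:0.1, 1:0.01 or 1:0.001; loss of color relative to compound-free IAPP was scored.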

Experiment [4] has as its target T3, IAPP fibrils. Kind of experiment: Thioflavin T fluorometry - disruption of type 2 diabetes IAPP fibrils. The conditions noted are these: 3 days; for inhibition / % Inhibition IAPP (result ± S.D.): 25 μM pre-fibrillized IAPP, 37° C.; for inhibition: read-out: % Inhibition IAPP (result ± S.D.). A digest of the protocol:
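Pre-fibrillized human IAPP (25 μM) incubated 3 days at 37 °C alone or with compound at IAPP:compound weight ratios of 1:1 to 1:0.001. Mixtures then mixed with Thioflavin T in phosphate buffer pH 6.8; fluorescence read at 485 nm (ex 444 nm) after blank subtraction.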

The mark [5] stands for this setting: NAC:test compound wt/wt ratio 1:0.001.
Where [6] appears, read: NAC:test compound wt/wt ratio 1:0.01.
Setting [7] is: NAC:test compound wt/wt ratio 1:0.1.
The mark [8] stands for this setting: NAC:test compound wt/wt ratio 1:1.
Setting [9] is: Aβ:test compound wt/wt ratio 1:0.001.
[10] abbreviates: Aβ:test compound wt/wt ratio 1:0.01.
[11] abbreviates: Aβ:test compound wt/wt ratio 1:0.1.
Setting [12] is: Aβ:test compound wt/wt ratio 1:1.
[13] abbreviates: IAPP:test compound wt/wt ratio 1:0.001.
Where [14] appears, read: IAPP:test compound wt/wt ratio 1:0.01.
[15] abbreviates: IAPP:test compound wt/wt ratio 1:0.1.
The mark [16] stands for this setting: IAPP:test compound wt/wt ratio 1:1.
Setting [17] is: all concentrations tested (ratios 1:1 to 1:0.001).

T2 sequence (P05067 672-713): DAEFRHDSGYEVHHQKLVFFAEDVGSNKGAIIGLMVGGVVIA

In general, inhibition refers to the percentage by which the read-out fell short of the control. In the case of `O=C(N[C@@H]1CCCC[C@H]1NC(=O)c1ccc(O)c(O)c1)c1ccc(O)c(O)c1` (relative stereo) [Compound 26, N,N′-bis(3,4-dihydroxybenzoyl)-trans-1,2-diaminocyclohexane], the inhibition was found to be 0% in experiment [1] (setting [5]); 56.8 ± 4.6% in experiment [1] (setting [6]); 61.3 ± 6.52% in experiment [1] (setting [7]); 70.4 ± 3.22% in experiment [1] (setting [8]); 0% in experiment [2] (setting [9]); 0% in experiment [2] (setting [10]). Further, the inhibition in experiment [2] (setting [11]) worked out at 11.7 ± 3.67%; in experiment [2] (setting [12]), 37.8 ± 5.5%; in experiment [4] (setting [13]), 3.7 ± 4.67%; in experiment [4] (setting [14]), 24.6 ± 6.77%; in experiment [4] (setting [15]), 45.9 ± 17.7%; in experiment [4] (setting [16]) it was 52.5 ± 2.44%. For the same compound, the “% Inhibition IAPP (result ± S.D.), Congo red binding” value is on record as 10.8 ± 2.63% in experiment [3] (setting [13]), 5.3 ± 6.14% in experiment [3] (setting [14]), 7.5 ± 2.83% in experiment [3] (setting [15]) and 0.0 ± 1.21% in experiment [3] (setting [16]).
For `O=C(O)CN(CCN(CC(=O)O)CC(=O)O)CC(=O)O` [EDTA, reference compound], the “% Inhibition NAC (result ± S.D.)” value came out at 0.0 ± 11.6% in experiment [1] (setting [5]), 0.0 ± 10.87% in experiment [1] (setting [6]), 0.0 ± 5.87% in experiment [1] (setting [7]) and 20.0 ± 11.8% in experiment [1] (setting [8]). Besides, in experiment [1], the “disruption/disassembly of pre-formed NAC fibrils (in words)” value was “no significant inhibition”. For the same compound, the “% Inhibition Aβ (result ± S.D.)” value worked out at 0.0 ± 3.01% in experiment [2] (setting [9]), 0.0 ± 4.88% in experiment [2] (setting [10]), 0.0 ± 7.12% in experiment [2] (setting [11]) and 11.3 ± 9.67% in experiment [2] (setting [12]). Moreover, the “disruption/disassembly of preformed Aβ 1-42 fibrils (in words)” value in experiment [2] (setting [17]) was “no significant inhibition”. The “% Inhibition IAPP (result ± S.D.), Congo red binding” value in experiment [3] (setting [13]) stood at 6.6 ± 2.27%; in experiment [3] (setting [14]) it was 3.6 ± 2.83%; in experiment [3] (setting [15]), 0.0 ± 1.91%; in experiment [3] (setting [16]), 0.0 ± 3.69%. The “inhibition of IAPP fibril binding to Congo red (in words)” value in experiment [3] (all concentrations tested (ratios 1:1 to 1:0.001), 3 days) is “no significant inhibition”. Moreover, the “% Inhibition IAPP (result ± S.D.)” value was 4.2 ± 1.05% in experiment [4] (setting [13]), 0.0 ± 5.23% in experiment [4] (setting [14]), 0.1 ± 2.59% in experiment [4] (setting [15]) and 4.4 ± 9.23% in experiment [4] (setting [16]). Moreover, the “disruption/disassembly of pre-formed IAPP fibrils (in words)” value in experiment [4] (setting [17]) was “no significant inhibition”.
With `O=C(c1ccc(O)c(O)c1)C(O)c1ccc(O)c(O)c1` (stereo not shown) [Compound 1, 3,4,3′,4′-tetrahydroxybenzoin], the inhibition in experiment [1] (setting [5]) stood at 0%; in experiment [1] (setting [6]), 68.2 ± 2.55%; in experiment [1] (setting [7]), 99.5 ± 0.53%; in experiment [1] (setting [8]), 100 ± 1%; in experiment [2] (setting [9]), 0%; in experiment [2] (setting [10]), 19.2 ± 4.31%. Also, the inhibition in experiment [2] (setting [11]) was 64.8 ± 1.98%; in experiment [2] (setting [12]), 97.3 ± 0.23%; in experiment [4] (setting [13]) it was 6.4 ± 4.4%; in experiment [4] (setting [14]) it was 57.3 ± 0.16%; in experiment [4] (setting [15]), 93 ± 1.27%; in experiment [4] (setting [16]), 99 ± 0.11%. The “disruption/disassembly of pre-formed NAC fibrils (in words)” value in experiment [1] is recorded as “dose-dependent disruption/disassembly”. In addition, the “% Inhibition IAPP (result ± S.D.), Congo red binding” value was 18.6 ± 4.05% in experiment [3] (setting [14]), 10.6 ± 3.40% in experiment [3] (setting [15]) and 40.7 ± 2.49% in experiment [3] (setting [16]).
For the compound `O=C(c1ccc(O)c(O)c1)N1CCN(C(=O)c2ccc(O)c(O)c2)CC1` [Compound 23, 1,4-bis(3,4-dihydroxybenzoyl)piperazine], the inhibition was determined as 0% in experiment [1] (setting [5]); 35.6 ± 9.73% in experiment [1] (setting [6]); 58 ± 8.43% in experiment [1] (setting [8]); 0% in experiment [2] (setting [9]); 16.5 ± 4.02% in experiment [2] (setting [10]); 26.2 ± 4.37% in experiment [2] (setting [11]). The inhibition in experiment [2] (setting [12]) stood at 46.7 ± 4.62%; in experiment [4] (setting [13]), 27.3 ± 45.4%; in experiment [4] (setting [14]) it was 44.3 ± 32.5%; in experiment [4] (setting [15]) it was 67.2 ± 18.4%; in experiment [4] (setting [16]), 85.2 ± 0.55%. The “% Inhibition IAPP (result ± S.D.), Congo red binding” value stood at 5.1 ± 2.45% in experiment [3] (setting [13]), 9.3 ± 1.40% in experiment [3] (setting [14]), 4.5 ± 4.12% in experiment [3] (setting [15]) and 5.5 ± 2.33% in experiment [3] (setting [16]).

These data come from US20070276034A1, “Compounds, compositions and methods for the treatment of synucleinopathies” (priority 2002, published 2007).
